{"source": "patent US20190307741A1", "about": "“[…] PD1 AND/OR PDL1 INHIBITOR AS PHARMACEUTICAL COMBINATION” (priority 2016, published 2019)", "test_system": "orthotopic MBT-2 mouse bladder tumors", "assay": "Antitumour activity (survival) in C3H/HEJ mice bearing orthotopic MBT-2 mouse bladder tumors", "type": "in vivo", "settings": "female C3H/HeJ mice, vinflunine ditartrate 12 mg/kg IP (Q2D×3)×2W", "experimental": "The antitumour activity of vinflunine alone or in combination with an anti-PD1 antibody was evaluated in C3H/HEJ mice bearing orthotopic MBT-2 mouse bladder tumors.\nVinflunine ditartrate is administered to mice at a concentration of 1.2 mg/ml in a saline buffer (0.9% NaCl).\nThe anti-PD1 antibody (clone: RMP1-14, catalog: BE0146, B/N: 5311-10/0914B, Bioxcell), is administered to mice at a concentration of 1 mg/ml in PBS. […] 2005 Aug. 1; 175(3):1586-92.\nVinflunine ditartrate has been injected at 12 mg/kg,\nThe anti-PD1 antibody has been injected at 10 mg/kg/inj.\nVinflunine ditartrate and the anti-PD1 antibody have been administered at a dose volume of 10 ml/kg/adm (i.e for one mouse weighing 20 g, 200 μl has been administered).\nVinflunine ditartrate has been injected intraperitoneally (IP) into the peritoneal cavity of mice.\nThe anti-PD-1 antibody has been injected intraperitoneally (IP) into the peritoneal cavity of mice. […]\nTumor cells have been e grown as monolayer at 37° C. in a humidified atmosphere (5% CO2, 95% air). […] The cells have been counted in a hemocytometer and their viability has been assessed by 0.25% trypan blue exclusion assay. […]\nAntitumour activity of vinflunine ditartrate alone, anti-PD1 antibody alone or of the combination was evaluated against MBT-2 cells orthotopically implanted by instillation C3H/HEJ mice. […]"}
{"substance": "20′,20′-difluoro-3′,4′-dihydrovinorelbine [vinflunine]", "values": [{"measurement": "ILS: Increase of Life Span (compared to vehicle) (%)", "setting": "ILS=T/C−100 (median day of death treated/control), anti-PD1 10 mg/kg/inj IP TW×2", "result": 46, "unit": "%"}, {"measurement": "Survival gain (compared to vehicle) Median", "setting": "anti-PD1 antibody 10 mg/kg/inj IP TW×2, treatment from D3, relative to vehicle", "result": 10, "unit": "days"}]}
